Laboratory results taken from patent US12274684B2, “Treatment of vasculopathy with prostacyclin and mesenchymal stem cells” (United Therapeutics Corporation, priority 2013, dated 2025).
Where “and” joins values, the source holds several entries; their conditions need not be identical. Identical values can stand only once.

System: human bone marrow MSC
Experiment: Microarray gene expression analysis of MSC (Illumina Human HT12 Expression BeadChip)
Type: cell-based
Details: Tre(+) 250 μg/mL, 24 h
Procedure: Human bone marrow MSC were expanded and seeded into six (6) T225 flasks using standard growth medium (Table 1). At 95-99% confluency, cells were thoroughly washed with PBS. Three (3) flasks were replenished with basal media containing 250 μg/mL treprostinil, (+)Tre, and the remaining three (3) flasks were replenished with unsupplemented basal media, (−)Tre. After 24 hours of culture, representative images were captured from (+) Tre and (−) Tre cultures. Conditioned media was collected from each replicate, divided into two samples of appropriate volumes, and analyzed separately for: 1) secreted proteins (Myriad RBM InflammationMAP® 1.0) and 2) exosome RNA content. Cells were lysed directly from culture flasks, processed for total RNA isolation, and analyzed for gene expression by microarray (Illumina Human HT12 Expression BeadChip). Microarray gene expression analysis was also performed on MSC from cultures without (−) or with (+) 250 ug/mL treprostinil. Three (3) biological replicates from each condition were analyzed. Of the 77,612 sequences identified among all replicates, only 24,273 were detected above the arbitrary background of 50 counts. 2,984 RNA sequences were unique to Tre(−) cultures, while 1,781 RNA sequences were unique to Tre(+) cultures (panel A). Genes detected in both conditions were further analyzed for differential expression (panel). […] Genes that are expressed only in Tre(−) cultures (that is to say, completely turned off in the Tre(+) cultures) are shown in Table 5.

CCCCC[C@H](O)CC[C@@H]1[C@H]2Cc3cccc(OCC(=O)O)c3C[C@H]2C[C@H]1O [treprostinil]
SLC14A1 (NM_015865) expression, Rep 1-3 (Table 4): 95 counts and 102 counts and 67 counts
SLC16A6 (NM_004694) expression, Rep 1-3: 975 counts and 1342 counts and 784 counts
SREBF1 (NM_004176) expression, Rep 1-3: 1709 counts and 1842 counts and 1577 counts
ST6GALNAC6 (NM_013443) expression, Rep 1-3: 424 counts and 651 counts and 445 counts
TRH (NM_007117) expression, Rep 1-3: 419 counts and 697 counts and 428 counts
VEGFA (NM_001025370) expression, Rep 1-3: 4761 counts and 6614 counts and 4293 counts
VEGFA (NM_001171626) expression, Rep 1-3: 6586 counts and 9874 counts and 6349 counts
GDNF (NM_199231) expression, AVG (Tre(−) AVG 0): 751 counts
HAS1 (NM_001523) expression, AVG, second entry (Tre(−) AVG 0): 958 counts
ST6GALNAC6 (NM_013443) expression, AVG (Tre(−) AVG 2): 506 counts
ANGPTL4 (NM_139314) expression, AVG (Tre(−) AVG 4): 1759 counts
ATP6V0D2 (NM_152565) expression, AVG (Tre(−) AVG 10): 646 counts
SLC16A6 (NM_004694) expression, AVG (Tre(−) AVG 10): 1034 counts
TRH (NM_007117) expression, AVG (Tre(−) AVG 11): 515 counts
PDE4B (NM_001037339) expression, AVG (Tre(−) AVG 14): 1196 counts
NGFR (NM_002507) expression, AVG (Tre(−) AVG 16): 1370 counts
PDE4D (NM_001197222) expression, AVG (Tre(−) AVG 16): 1677 counts
SLC4A2 (NM_001199693) expression, AVG (Tre(−) AVG 16): 524 counts
HAS1 (NM_001523) expression, AVG, first entry (Tre(−) AVG 23): 1728 counts
ATF3 (NM_001030287) expression, AVG (Tre(−) AVG 26): 1207 counts
KYNU (NM_003937) expression, AVG (Tre(−) AVG 27): 862 counts
PDK4 (NM_002612) expression, AVG (Tre(−) AVG 33): 1399 counts
PDE4D (NM_001197221) expression, AVG (Tre(−) AVG 36): 1124 counts
STC1 (NM_003155) expression, AVG (Tre(−) AVG 36): 1584 counts
ATF3 (NM_001674) expression, AVG (Tre(−) AVG 37): 676 counts
BMP6 (NM_001718) expression, AVG (Tre(−) AVG 39): 1324 counts
KTN1 (NM_001079522) expression, AVG (Tre(−) AVG 40): 579 counts
SEC31A (NM_001077207) expression, AVG (Tre(−) AVG 40): 732 counts
PLOD2 (NM_000935) expression, AVG (Tre(−) AVG 42): 1258 counts
GDNF (NM_000514) expression, AVG (Tre(−) AVG 43): 786 counts
PTGS2 (NM_000963) expression, AVG (Tre(−) AVG 46): 10888 counts
PAQR5 (NM_017705) expression, AVG (Tre(−) AVG 48): 704 counts
IL11 (NM_000641) expression, AVG (Tre(−) AVG 50): 929 counts
SCG2 (NM_003469) expression, AVG (Tre(−) AVG 51): 1090 counts
PITPNC1 (NM_181671) expression, AVG (Tre(−) AVG 52): 824 counts
IGFBP1 (NM_000596) expression, AVG (Tre(−) AVG 53): 6304 counts
SLC6A15 (NM_182767) expression, AVG (Tre(−) AVG 54): 1277 counts
HSD11B1 (NM_005525) expression, AVG (Tre(−) AVG 55): 849 counts
NR4A2 (NM_006186) expression, AVG (Tre(−) AVG 55): 679 counts
PTP4A1 (NM_003463) expression, AVG (Tre(−) AVG 58): 685 counts
SIK1 (NM_173354) expression, AVG (Tre(−) AVG 58): 1183 counts
IL6 (NM_000600) expression, AVG (Tre(−) AVG 63): 6859 counts
SMOX (NM_175840) expression, AVG (Tre(−) AVG 77): 955 counts
PALLD (NM_001166110) expression, AVG (Tre(−) AVG 78): 1033 counts
DUSP1 (NM_004417) expression, AVG (Tre(−) AVG 85): 1092 counts
SAT1 (transcript variant 2, non-coding RNA) expression, AVG (Tre(−) AVG 89): 1208 counts
PRKAG2 (NM_024429) expression, AVG (Tre(−) AVG 91): 7155 counts
LIPG (NM_006033) expression, AVG (Tre(−) AVG 129): 1702 counts
IER3 (NM_003897) expression, AVG (Tre(−) AVG 132): 2974 counts
SREBF1 (NM_004176) expression, AVG (Tre(−) AVG 148): 1709 counts
IDH1 (NM_005896) expression, AVG (Tre(−) AVG 155): 2039 counts
C11orf96 (NM_001145033) expression, AVG (Tre(−) AVG 176): 2105 counts
CD55 (NM_001114752) expression, AVG (Tre(−) AVG 202): 2663 counts
GPRC5A (NM_003979) expression, AVG (Tre(−) AVG 355): 4684 counts
CD55 (NM_000574) expression, AVG (Tre(−) AVG 359): 7712 counts
VEGFA (NM_001025370) expression, AVG (Tre(−) AVG 386): 5223 counts
GDF15 (NM_004864) expression, AVG (Tre(−) AVG 421): 13505 counts
TIAM2 (NM_012454) expression, AVG (Tre(−) AVG 504): 20 counts
KIAA0930 (NM_015264) expression, AVG (Tre(−) AVG 511): 48 counts
CALD1 (NM_033140) expression, AVG (Tre(−) AVG 523): 0 counts
MBNL1 (NM_207297) expression, AVG (Tre(−) AVG 526): 46 counts
NAP1L3 (NM_004538) expression, AVG (Tre(−) AVG 538): 48 counts
CLDN11 (NM_005602) expression, AVG (Tre(−) AVG 543): 13 counts
FAM198B (NM_001128424) expression, AVG (Tre(−) AVG 559): 15 counts
SLC7A8 (NM_182728) expression, AVG (Tre(−) AVG 613): 43 counts
ASPM (NM_018136) expression, AVG (Tre(−) AVG 625): 26 counts
CPA4 (NM_016352) expression, AVG (Tre(−) AVG 631): 53 counts
CELF1 (NM_001172640) expression, AVG (Tre(−) AVG 644): 59 counts
TCF12 (NM_207040) expression, AVG (Tre(−) AVG 648): 40 counts
SCN2A (NM_021007) expression, AVG (Tre(−) AVG 652): 20 counts
ASPH (NM_001164754) expression, AVG (Tre(−) AVG 658): 37 counts
CIT (NM_001206999) expression, AVG (Tre(−) AVG 661): 9 counts
VEGFA (NM_001171626) expression, AVG (Tre(−) AVG 664): 7603 counts
ANLN (NM_018685) expression, AVG (Tre(−) AVG 669): 57 counts
ST8SIA1 (NM_003034) expression, AVG (Tre(−) AVG 731): 45 counts
TPM1 (NM_001018007) expression, AVG (Tre(−) AVG 731): 36 counts
FAM84A (NM_145175) expression, AVG (Tre(−) AVG 733): 45 counts
SPATA20 (NM_022827) expression, AVG (Tre(−) AVG 733): 15 counts
PRRT2 (NM_145239) expression, AVG (Tre(−) AVG 744): 36 counts
LRRC17 (NM_001031692) expression, AVG (Tre(−) AVG 746): 22 counts
ANGPT1 (NM_001146) expression, AVG (Tre(−) AVG 780): 53 counts
ANK3 (NM_001204403) expression, AVG (Tre(−) AVG 811): 57 counts
SNX14 (NM_153816) expression, AVG (Tre(−) AVG 813): 18 counts
RCAN1 (NM_203418) expression, AVG (Tre(−) AVG 814): 8908 counts
OLFML1 (NM_198474) expression, AVG (Table 5) (Tre(−) AVG 816): 42 counts
RASA4 (NM_006989) expression, AVG (Tre(−) AVG 857): 11 counts
GDF5 (NM_000557) expression, AVG (Tre(−) AVG 883): 71 counts
MAP1B (NM_005909) expression, AVG (Tre(−) AVG 886): 42 counts
C13orf33 (NM_032849) expression, AVG (Tre(−) AVG 918): 19296 counts
MEOX2 (NM_005924) expression, AVG (Tre(−) AVG 982): 31 counts
MYLK (NM_053025) expression, AVG (Tre(−) AVG 991): 0 counts
SLC14A1 (NM_015865) expression, AVG (Table 5) (Tre(−) AVG 1036): 19 counts
FLG (NM_002016) expression, AVG (Tre(−) AVG 1052): 28 counts
ARPC4 (NM_001024960) expression, AVG (Tre(−) AVG 1150): 12 counts
RCAN2 (NM_001251974) expression, AVG (Tre(−) AVG 1218): 105 counts
EPB41L2 (NM_001199389) expression, AVG (Tre(−) AVG 1272): 113 counts
SLC2A12 (NM_145176) expression, AVG (Tre(−) AVG 1281): 105 counts
MEST (NM_002402) expression, AVG (Tre(−) AVG 1283): 85 counts
METTL7A (NM_014033) expression, AVG (Tre(−) AVG 1299): 109 counts
S100A4 (NM_002961) expression, AVG (Tre(−) AVG 1312): 125 counts
RBFOX2 (NM_001031695) expression, AVG (Tre(−) AVG 1316): 10 counts
ACTN1 (NM_001130005) expression, AVG (Tre(−) AVG 1459): 115 counts
OLFML2B (NM_015441) expression, AVG (Tre(−) AVG 1465): 70 counts
PRELP (NM_002725) expression, AVG (Tre(−) AVG 1474): 114 counts
COL21A1 (NM_030820) expression, AVG (Tre(−) AVG 1569): 57 counts
SLC14A1 (NM_015865) expression, AVG (Table 4) (Tre(−) AVG 1621): 88 counts
DDAH1 (NM_001134445) expression, AVG (Tre(−) AVG 1685): 133 counts
LMOD1 (NM_012134) expression, AVG (Tre(−) AVG 1722): 65 counts
OLFML1 (NM_198474) expression, AVG (Table 4) (Tre(−) AVG 1734): 140 counts
MXRA5 (NM_015419) expression, AVG (Tre(−) AVG 1759): 54 counts
DKFZp547J0510 (CDNA FLJ42650 fis, clone BRACE3027478) expression, AVG (Tre(−) AVG 1932): 148 counts
PLIN2 (NM_001122) expression, AVG (Tre(−) AVG 1976): 92927 counts
SYNPO2 (NM_001128933) expression, AVG (Tre(−) AVG 2551): 104 counts
ASPH (NM_004318) expression, AVG (Tre(−) AVG 2719): 1 counts
SREBF1 (NM_001005291) expression, AVG (Tre(−) AVG 2936): 12 counts
SLC3A2 (NM_001013251) expression, AVG (Tre(−) AVG 3190): 33526 counts
PDE5A (NM_033430) expression, AVG (Tre(−) AVG 3361): 222 counts
MEST (NM_177525) expression, AVG (Tre(−) AVG 3552): 298 counts
RND3 (NM_005168) expression, AVG (Tre(−) AVG 4013): 51756 counts
ISLR (NM_005545) expression, AVG (Tre(−) AVG 5533): 548 counts
PALLD (NM_001166109) expression, AVG (Tre(−) AVG 9809): 753 counts
CXCL12 (NM_199168) expression, AVG (Tre(−) AVG 10574): 671 counts
CTGF (NM_001901) expression, AVG (Tre(−) AVG 23012): 741 counts
COL6A3 (NM_004369) expression, AVG (Tre(−) AVG 54326): 4635 counts
